Measurements as given in US20110190390A1, “METHODS AND MATERIALS FOR TREATING PANCREATIC CANCER” (priority 2010, published 2011).

Assays:
[1] = tested on: Panc-1, Capan-1, and MiaPaCa-2 human pancreatic cancer cells; test: Soft agar colony formation (anchorage-independent growth); format: cell-based; conditions: range over three PDAC cell lines (Panc-1, Capan-1, Miapaca-2); increasing concentrations
Description: (§1) FIG. 13. Aurothiomalate (ATM) inhibits PDAC cells soft agar colony formation and invasion. A) Dose response curves to the growth inhibitory effects of ATM on soft agar colony formation in Panc-1, Capan-1, and MiaPaCa-2 human pancreatic cancer cells. B) Panc-1 cells were pre-incubated in increasing concentrations of ATM and then assayed for in vitro invasion through Matrigel matrix.
Panc-1 and MiaPaCa-2 cells (5×10^3) were plated in soft agar and assessed for anchorage-independent growth as described elsewhere (Regala et al., J. Biol. Chem., 280:31109-15 (2005)).
(§2) Three PDAC cell lines (Panc-1, Capan-1, and Miapaca-2), expressing varying amounts of PKCι (FIG. 13), were assayed for the ability to form colonies in soft agar (anchorage-independent growth) in the presence of increasing concentrations of aurothiomalate (ATM, FIG. 13A).

[2] = tested on: Panc-1 cells; test: In vitro invasion through Matrigel matrix; format: cell-based, human; conditions: 48 hour pre-incubation
Description: as §1, §2

[3] = tested on: mPanINs of P48-Cre; LSL-K-rasG12D mice; test: mPanIN proliferation by BrdU incorporation (IHC) in P48-Cre; LSL-K-rasG12D mice; format: in vivo, mouse; conditions: 60 mg/kg/day IP x 10 days, mice 7-9 months old, vs untreated age-matched mice, n=3/group
Description: FIG. 18. ATM inhibits proliferation of mPanINs in P48-Cre; LSL-K-ras^G12D mice. Three older P48-Cre; LSL-K-ras^G12D mice (7-9 months of age) were administered ATM (60 mg/kg/day) by IP injection for 10 days. Mice were injected with BrdU prior to sacrifice. Pancreata were isolated and analyzed by IHC for BrdU incorporation, as an indicator of the proliferative activity of the tissue. BrdU incorporation was compared to untreated, age-matched P48-Cre; LSL-K-ras^G12D mice. n=3/group.
(§3) ATM reduced mPanIN proliferation and SHH expression. In order to investigate the potential therapeutic role of ATM in pancreatic cancer, acute ATM treatment (60 mg/kg/day×10 days) of older P48-Cre; LSL-K-rasG12D mice (PC/+, Ras/+; 7-9 months old, they have already developed PanINs and adenomas) was performed. […] These same mice were analyzed for pancreatic expression of SHH. SHH increased in expression in P48-Cre; LSL-K-rasG12D mice, similar to PKCι.

[4] = tested on: SHH expression; test: Pancreatic SHH mRNA expression (qPCR) in P48-Cre; LSL-K-rasG12D mice; format: in vivo, mouse; conditions: 60 mg/kg/day IP x 10 days, mice 7-9 months old, vs untreated age-matched mice, n=1/group
Description: FIG. 19. ATM inhibits induction of SHH expression in mPanINs of P48-Cre; LSL-K-ras^G12D mice. Three older P48-Cre; LSL-K-ras^G12D mice (7-9 months of age) were administered ATM (60 mg/kg/day) by IP injection for 10 days. mRNA was isolated from pancreata from treated, and untreated, age-matched P48-Cre; LSL-K-ras^G12D mice and analyzed by qPCR analysid for expression of SHH. n=1/group.
as §3

**Q.** With O=C(O)CC([S-])C(=O)O.[Au+] (stereo not shown) [ATM, aurothiomalate] as the compound, how does the IC50 [1] read?
**A.** 20 to 61 µM

**Q.** And the IC50 [2]?
**A.** 7.4 µM

**Q.** What about the “proliferation in the mPanINs (BrdU incorporation)” value [3] of the same compound?
**A.** significantly reduced

**Q.** And the “pancreatic SHH expression” value [4]?
**A.** significantly reduced
